Reference: patent US20050147565A1, “Pharmaceutical compositions for the treatment of asthma” (Schering Corporation, priority 2001, published 2005)

How the values were obtained:
[1] = cited from earlier work
[2] = Drug Content Uniformity (DCU) through the life of a 120 dose MDI; format: physicochemical; details: Formoterol/Mometasone 6/50 μg/actuation inhaler
Protocol: The Drug Content Uniformity (DCU) of the inhaler was measured throughout the life of a 120 dose MDI to ascertain whether there was a consistency of dose of the active ingredients throughout the life of the product. Five canisters of each formulation (HFA 227 or HFA 134a) were analyzed and each canister delivered 120 actuations of medication and the amount of actives exiting the inhaler per actuation was measured at varying actuations, e.g., numbers 11, 12, 13, 14, (beginning) 59, 60, 61, 62 (middle) and 117, 118, 119 and 120 (end). Means were determined for the beginning, middle and end actuations, and an overall mean was determined and set forth in Examples 9 and 10 above.

[3] = Andersen Cascade Impactor particle size distribution of the emitted dose of the metered dose inhaler; format: physicochemical; details: Formoterol/Mometasone 6/50 μg/actuation inhaler
Source text: The formulations of the present invention were further analyzed using an Andersen Cascade Impactor as described in Examples 6 and 7. The Andersen Cascade Impactor is widely used for measuring the particle size distribution of airborne particles and more specifically pharmaceutical aerosols. The eight stage Andersen Impactor separates the sample into nine size intervals when used with a backup filter after the last impaction stage. In FIGS. 1 to 4, this corresponds Stage 0 of particles having a particle size less than 10 μm to a particle size of 0.65-0.43 μm in stage 8, with the final stage corresponding to the filter for particles less than 0.43 μm. The measurement of the particle size at the “throat” in the figures corresponds to the entry port of the Impactor. The fine particle fraction is defined as the percentage of particles having a particle size of less than 4.7 μm. The fine particle dose is defined as the amount in μg per dose that is less than 4.7 μm in size in each actuation. The μg/shot is the total amount of emitted drug product that exits the metered dose inhaler upon actuation. The determination of the particle size distribution of the emitted dose of the formulation using an Andersen Cascade Impactor is known to one of skill in the art.
A formulation containing 6 μg of formoterol fumarate and 50 μg of mometasone furoate using HFA 227 in the absence of a bulking agent or carrier in a metered dose inhaler was analyzed by an Andersen Cascade Impactor to 5 analyze the amount of active drug ingredients and the particle size of the actives exiting the inhaler over time. […] The metered dose for both actives over time was also within acceptable limits (62.9 to 63.3 for mometasone and 6.6 to 6.5 for formoterol at the 4 month point). […]
A formulation containing 6 μg of formoterol fumarate and 50 μg of mometasone furoate using HFA 134a with lactose as a bulking agent in a metered dose inhaler was analyzed by an Andersen Cascade Impactor to analyze the amount of active drug ingredients and the particle size of the actives exiting the inhaler over time. […] Additionally, the metered dose actually delivered was also maintained over time within acceptable limits (64.1 to 63.7 for mometasone, 6.9 to 6.6 for formoterol). The fine particle fraction for both mometasone and formoterol was maintained within acceptable limits.

[4] = HFA 134a, low bulking agent (lactose), 1 Month, 4 C./40 C.
[5] = HFA 134a, low bulking agent (lactose), 1 Month, 40 C./75%
[6] = HFA 134a, low bulking agent (lactose), 3 Month, 4 C./40 C.
[7] = HFA 134a, low bulking agent (lactose), 4 Month, 25 C./60%
[8] = HFA 134a, low bulking agent (lactose), 4 Month, 40 C./75%
[9] = HFA 134a, low bulking agent (lactose), Initial
[10] = HFA 227, without bulking agent, 1 Month, 4 C./40 C.
[11] = HFA 227, without bulking agent, 1 Month, 40 C./75%
[12] = HFA 227, without bulking agent, 3 Month, 4 C./40 C.
[13] = HFA 227, without bulking agent, 4 Month, 25 C./60%
[14] = HFA 227, without bulking agent, 4 Month, 40 C./75%
[15] = HFA 227, without bulking agent, Initial

## COc1ccc(CC(C)NCC(O)c2ccc(O)c(NC=O)c2)cc1.COc1ccc(CC(C)NCC(O)c2ccc(O)c(NC=O)c2)cc1.O.O.O=C(O)/C=C/C(=O)O (racemic) [Formoterol Fumarate, (±)2-hydroxy-5-[(1RS)-1-hydroxy-2-[[(1RS)-2-(4-methoxyphenyly-1methylethyl]-amino]ethyl]formanilide fumarate dihydrate]
[1]; acetone
  solubility in acetone: practically insoluble
[1]; diethyl ether
  solubility in diethyl ether: practically insoluble
[1]; ethanol
  solubility in ethanol: sparingly soluble
[1]; ethyl acetate
  solubility in ethyl acetate: practically insoluble
[1]; glacial acetic acid
  solubility in glacial acetic acid: freely soluble
[1]; isopropanol
  solubility in isopropanol: sparingly soluble
[1]; methanol
  solubility in methanol: soluble
[1]; water
  solubility in water: slightly soluble
[2]; HFA 134a, low bulking agent, 1 Month, 4 C./40 C.
  Overall Mean μg/shot: 5.6 μg/shot
[2]; HFA 134a, low bulking agent, 1 Month, 40 C./75%
  Overall Mean μg/shot: 6.0 μg/shot
[2]; HFA 134a, low bulking agent, Initial
  Overall Mean μg/shot: 6.2 μg/shot
[2]; HFA 227, no bulking agent, 1 Month, 4 C./40 C.
  Overall Mean μg/shot: 5.5 μg/shot
[2]; HFA 227, no bulking agent, 1 Month, 40 C./75%
  Overall Mean μg/shot: 5.7 μg/shot
[2]; HFA 227, no bulking agent, Initial
  Overall Mean μg/shot: 5.7 μg/shot
[3]; [4]
  Fine Particle Dose (μg/shot): 2.0 μg/shot
  Fine Particle Fraction %: 38.0%
  MMAD (microns): 3.1 microns
[3]; [5]
  Fine Particle Dose (μg/shot): 2.1 μg/shot
  Fine Particle Fraction %: 41.3%
  MMAD (microns): 2.9 microns
[3]; [6]
  Fine Particle Dose (μg/shot): 2.2 μg/shot
  Fine Particle Fraction %: 40.2%
  MMAD (microns): 3.2 microns
[3]; [7]
  Fine Particle Dose (μg/shot): 2.3 μg/shot
  Fine Particle Fraction %: 43.6%
  MMAD (microns): 3.0 microns
[3]; [8]
  Fine Particle Dose (μg/shot): 2.1 μg/shot
  Fine Particle Fraction %: 40.3%
  MMAD (microns): 3.1 microns
[3]; [9]
  Fine Particle Dose (μg/shot): 2.4 μg/shot
  Fine Particle Fraction %: 42.5%
  MMAD (microns): 2.9 microns
[3]; [10]
  Fine Particle Dose (μg/shot): 2.2 μg/shot
  Fine Particle Fraction %: 39.0%
  MMAD (microns): 3.3 microns
  μg/shot (metered dose): 6.3 μg/shot
[3]; [11]
  Fine Particle Dose (μg/shot): 2.4 μg/shot
  Fine Particle Fraction %: 41.1%
  MMAD (microns): 3.2 microns
  μg/shot (metered dose): 6.6 μg/shot
[3]; [12]
  Fine Particle Dose (μg/shot): 1.9 μg/shot
  Fine Particle Fraction %: 35.2%
  MMAD (microns): 3.3 microns
  μg/shot (metered dose): 6.3 μg/shot
[3]; [13]
  Fine Particle Dose (μg/shot): 2.6 μg/shot
  Fine Particle Fraction %: 47.3%
  MMAD (microns): 3.2 microns
  μg/shot (metered dose): 6.5 μg/shot
[3]; [14]
  Fine Particle Dose (μg/shot): 2.2 μg/shot
  Fine Particle Fraction %: 40.1%
  MMAD (microns): 3.4 microns
  μg/shot (metered dose): 6.5 μg/shot
[3]; [15]
  Fine Particle Dose (μg/shot): 2.6 μg/shot
  Fine Particle Fraction %: 46.3%
  MMAD (microns): 3.2 microns
  μg/shot (metered dose): 6.6 μg/shot
